Here are results for five compounds from patent US20040224987A1, “Crystalline form C of omeprazole sodium and the related process of its preparation, a crystalline form D of omeprazole sodium and the related process of its preparation, and a process for preparation of crystalline form a of omeprazole sodium” (DR. REDDY'S LABORATORIES LIMITED, priority 2003, published 2004).

Data set [1] can be described thus: hygroscopicity of crystalline forms of omeprazole sodium. Type of data set: physicochemical. As to conditions: forms obtained by the processes of the invention.
For data set [2] the following is noted: cited from earlier work; for physical stability: forms disclosed in WO 99/00380.
The conditions of data set [3]: Form-A prepared according to Example 3 of WO99/00380, dried substance with one strongly bound water molecule, normal conditions; cited from earlier work.
The nature of data set [4]: stability of crystalline forms of omeprazole sodium.

SMILES strings stand for the structures. Read-outs that look alike come from different tables or passages of the source.

Take `COc1ccc2[n-]c([S+]([O-])Cc3ncc(C)c(OC)c3C)nc2c1.[Na+]` (stereo not drawn) [Form C, omeprazole sodium]: in data set [1], the hygroscopicity result is given as “less hygroscopic than Form A”.

Consider `COc1ccc2[n-]c([S+]([O-])Cc3ncc(C)c(OC)c3C)nc2c1.[Na+]` (stereo not drawn) [Form D, omeprazole sodium], for which the hygroscopicity entry in data set [1] is “non-hygroscopic”.

Turning to `COc1ccc2[n-]c([S+]([O-])Cc3ncc(C)c(OC)c3C)nc2c1.[Na+]` (stereo not drawn) [Form-A, omeprazole sodium], the thermodynamic stability result in data set [2] (Form-A produced according to Example 3 of WO 99/00380) is “thermodynamically unstable”; in data set [4] (Form-A obtained by the process of the invention, compared with prior art processes), “thermodynamically more stable”. Besides, the hygroscopicity entry is listed as “very hygroscopic” in data set [3] and “non-hydroscopic” in data set [1]. Also, the “stability (kind not specified)” value in data set [4] (forms obtained by the processes of the invention) is on record as “stable”.

For the compound `COc1ccc2[n-]c([S+]([O-])Cc3ncc(C)c(OC)c3C)nc2c1.[Na+]` (stereo not drawn) [Form-B, omeprazole sodium], the physical stability entry in data set [2] is on record as “physically stable”.

As for `COc1ccc2[n-]c([S+]([O-])Cc3ncc(C)c(OC)c3C)nc2c1.[Na+]` (stereo not drawn) [Form-X, omeprazole sodium], the physical stability result in data set [2] is reported as “physically unstable”.
